Test [1] addresses STE20-like serine/threonine-protein kinase (Homo sapiens) (UniProt Q9H2G2). Description: Inhibition of SLK Lys1 labeling site in human Huh-7 cell lysate at 1 uM by KiNativ Profiling analysis relative to control. The format is subcellular.
Test [2] has as its target Serine/threonine-protein kinase ATR (Homo sapiens) (UniProt Q13535). The experiment in a line: Inhibition of ATR in human Huh-7 cell lysate at 1 uM by KiNativ Profiling analysis relative to control. It counts as subcellular.
Test [3] deals with T1, Mitogen-activated protein kinase 12 (Homo sapiens) (UniProt P53778).
T1 sequence (whole entry): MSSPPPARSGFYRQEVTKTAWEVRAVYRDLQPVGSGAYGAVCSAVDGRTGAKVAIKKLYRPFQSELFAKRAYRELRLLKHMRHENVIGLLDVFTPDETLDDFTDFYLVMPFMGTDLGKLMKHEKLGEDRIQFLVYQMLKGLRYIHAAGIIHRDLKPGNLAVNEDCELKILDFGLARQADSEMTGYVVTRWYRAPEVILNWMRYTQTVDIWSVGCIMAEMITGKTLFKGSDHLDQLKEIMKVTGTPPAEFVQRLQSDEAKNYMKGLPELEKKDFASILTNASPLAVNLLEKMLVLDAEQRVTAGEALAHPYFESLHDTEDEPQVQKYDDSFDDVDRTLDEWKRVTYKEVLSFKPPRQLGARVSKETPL
Description: Inhibition of p38gamma Lys2 labeling site in human Huh-7 cells at 1 uM by KiNativ Profiling analysis relative to control. The format is cell-based.

Test [4] has as its target Serine/threonine-protein kinase 32C (Homo sapiens) (UniProt Q86UX6). Description: Inhibition of YANK3 Lys2 labeling site in human Huh-7 cell lysate at 1 uM by KiNativ Profiling analysis relative to control. The format is subcellular.
Test [5] deals with Calcium/calmodulin-dependent protein kinase type 1D (Homo sapiens) (UniProt Q8IU85). Description: Inhibition of CAMK1D (unknown origin) at 1 uM by Ambit Kinomescan binding assay relative to control; values are per cent of control.
For test [6], the target named is Mitogen-activated protein kinase 9 (Homo sapiens, UniProt P45984). The experiment in a line: Inhibition of JNK2 (unknown origin) at 1 uM by Ambit Kinomescan binding assay relative to control.
The target in test [7] is Insulin receptor (Homo sapiens) (UniProt P06213). Description: Inhibition of INSR (unknown origin) at 1 uM by Ambit Kinomescan binding assay relative to control; values are per cent of control.
A short description of test [8]: Inhibition of p70S6K Lys2 labeling site in human A-375 cells at 0.5 uM by KiNativ Profiling analysis relative to control. As to conditions: condition cancer.
Test [9] has as its system Receptor-type tyrosine-protein kinase FLT3 (Homo sapiens), P36888 [UNDEFINED MUTATION]. Description: Inhibition of FLT3 ITD mutant (unknown origin) at 1 uM by Ambit Kinomescan binding assay relative to control; values are per cent of control.
Another test has as its system RAW. The experiment in a line: Inhibition of LPS induced p105 phosphorylation in mouse RAW cells preincubated for 1 hr followed by LPS stimulation and measured after 30 mins by Western blot analysis. As to conditions: dose 0.01-10 µM. It counts as functional, cell-based.
The target of test [10] is T2, Serine/threonine-protein kinase TBK1 (Homo sapiens) (UniProt Q9UHD2).
T2 sequence (whole entry): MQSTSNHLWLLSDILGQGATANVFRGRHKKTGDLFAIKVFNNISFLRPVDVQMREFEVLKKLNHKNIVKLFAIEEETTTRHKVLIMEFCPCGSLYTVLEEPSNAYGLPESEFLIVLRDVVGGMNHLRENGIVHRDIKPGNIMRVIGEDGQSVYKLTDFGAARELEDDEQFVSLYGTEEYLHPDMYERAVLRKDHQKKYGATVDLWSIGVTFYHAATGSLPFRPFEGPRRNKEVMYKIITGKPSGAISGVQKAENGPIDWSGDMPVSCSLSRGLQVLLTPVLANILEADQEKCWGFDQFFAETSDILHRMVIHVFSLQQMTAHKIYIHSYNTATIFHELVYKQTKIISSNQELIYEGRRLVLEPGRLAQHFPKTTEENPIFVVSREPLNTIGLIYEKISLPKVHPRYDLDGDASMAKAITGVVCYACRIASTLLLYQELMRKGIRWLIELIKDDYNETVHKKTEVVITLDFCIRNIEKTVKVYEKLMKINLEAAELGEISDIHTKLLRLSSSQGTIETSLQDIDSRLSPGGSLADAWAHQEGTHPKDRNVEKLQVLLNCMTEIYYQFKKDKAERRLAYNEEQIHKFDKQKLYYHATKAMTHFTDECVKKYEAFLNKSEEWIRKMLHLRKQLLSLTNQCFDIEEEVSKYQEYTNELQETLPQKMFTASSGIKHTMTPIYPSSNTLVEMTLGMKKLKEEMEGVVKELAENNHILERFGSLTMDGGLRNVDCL
Description: Inhibition of TBK1 K2 labeling site in human Huh-7 cells at 1 uM by KiNativ Profiling analysis relative to control. The format is cell-based.

For test [11], the target named is Focal adhesion kinase 1 (Homo sapiens) (UniProt Q05397). Description: Inhibition of FAK (unknown origin) at 10 uM by Ambit Kinomescan binding assay relative to control.
Test [12] has as its target T3, Phosphatidylinositol 5-phosphate 4-kinase type-2 gamma (Homo sapiens) (UniProt Q8TBX8).
T3 sequence (whole entry): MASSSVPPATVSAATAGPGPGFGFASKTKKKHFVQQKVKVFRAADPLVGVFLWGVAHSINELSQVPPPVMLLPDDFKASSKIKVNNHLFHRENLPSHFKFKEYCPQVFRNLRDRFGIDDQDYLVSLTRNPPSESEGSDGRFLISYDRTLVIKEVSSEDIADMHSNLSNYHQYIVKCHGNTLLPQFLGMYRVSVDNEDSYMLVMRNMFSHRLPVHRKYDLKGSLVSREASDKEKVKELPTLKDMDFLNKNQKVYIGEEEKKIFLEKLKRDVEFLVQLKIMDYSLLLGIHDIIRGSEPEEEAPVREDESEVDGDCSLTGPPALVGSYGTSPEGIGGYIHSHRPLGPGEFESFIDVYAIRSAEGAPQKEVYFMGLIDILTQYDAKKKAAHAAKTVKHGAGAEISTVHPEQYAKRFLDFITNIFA
Description: Inhibition of PIP5K2C C2 labeling site in human Huh-7 cells at 1 uM by KiNativ Profiling analysis relative to control. The format is cell-based.

Test [13] has as its target Serine/threonine-protein kinase Nek7 (Homo sapiens) (UniProt Q8TDX7). Description: Inhibition of NEK7 (unknown origin) at 10 uM by Ambit Kinomescan binding assay.
In test [14] the target is Dual specificity protein kinase CLK2 (Homo sapiens) (UniProt P49760). The experiment in a line: Inhibition of CLK2 (unknown origin) at 10 uM by Ambit Kinomescan binding assay.

Broadly, the inhibition is the relative decrease from the control value, in per cent. Usually residual activity stands for the activity still measured, relative to the control.

Activity calls are given as the source filed them. The rule behind the calls is not given here.

Serine/threonine-protein kinase Nek7 (Homo sapiens), sequence (Q8TDX7 whole entry, looked up): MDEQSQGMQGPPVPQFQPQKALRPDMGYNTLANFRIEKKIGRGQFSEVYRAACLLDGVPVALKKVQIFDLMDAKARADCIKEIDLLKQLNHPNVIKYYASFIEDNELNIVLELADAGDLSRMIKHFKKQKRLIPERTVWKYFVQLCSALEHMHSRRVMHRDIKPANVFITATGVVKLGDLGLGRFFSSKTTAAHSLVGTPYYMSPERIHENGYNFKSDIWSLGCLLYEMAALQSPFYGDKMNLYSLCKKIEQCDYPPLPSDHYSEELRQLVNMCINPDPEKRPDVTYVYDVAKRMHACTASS
Insulin receptor (Homo sapiens), sequence (P06213 28-758 limits assumed): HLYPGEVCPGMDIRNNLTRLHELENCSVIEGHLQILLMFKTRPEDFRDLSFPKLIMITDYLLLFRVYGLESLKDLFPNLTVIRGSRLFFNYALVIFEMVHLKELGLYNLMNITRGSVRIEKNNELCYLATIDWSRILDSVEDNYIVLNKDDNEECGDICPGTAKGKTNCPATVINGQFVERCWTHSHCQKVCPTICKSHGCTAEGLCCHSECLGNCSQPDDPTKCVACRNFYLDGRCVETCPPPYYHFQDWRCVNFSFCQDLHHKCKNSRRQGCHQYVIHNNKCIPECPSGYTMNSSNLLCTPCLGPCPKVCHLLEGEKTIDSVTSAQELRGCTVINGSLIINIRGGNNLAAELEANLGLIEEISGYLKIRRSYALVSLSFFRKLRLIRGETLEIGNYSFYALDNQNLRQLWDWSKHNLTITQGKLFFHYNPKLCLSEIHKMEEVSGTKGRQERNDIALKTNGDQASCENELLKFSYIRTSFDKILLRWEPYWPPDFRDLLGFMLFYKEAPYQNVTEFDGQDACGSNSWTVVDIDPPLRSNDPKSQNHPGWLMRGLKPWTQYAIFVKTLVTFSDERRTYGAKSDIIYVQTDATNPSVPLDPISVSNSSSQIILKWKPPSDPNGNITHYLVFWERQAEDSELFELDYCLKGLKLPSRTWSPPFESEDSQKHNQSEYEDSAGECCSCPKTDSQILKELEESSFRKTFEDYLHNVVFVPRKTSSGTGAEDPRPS
Insulin receptor (Homo sapiens), sequence (P06213 763-1382 limits assumed): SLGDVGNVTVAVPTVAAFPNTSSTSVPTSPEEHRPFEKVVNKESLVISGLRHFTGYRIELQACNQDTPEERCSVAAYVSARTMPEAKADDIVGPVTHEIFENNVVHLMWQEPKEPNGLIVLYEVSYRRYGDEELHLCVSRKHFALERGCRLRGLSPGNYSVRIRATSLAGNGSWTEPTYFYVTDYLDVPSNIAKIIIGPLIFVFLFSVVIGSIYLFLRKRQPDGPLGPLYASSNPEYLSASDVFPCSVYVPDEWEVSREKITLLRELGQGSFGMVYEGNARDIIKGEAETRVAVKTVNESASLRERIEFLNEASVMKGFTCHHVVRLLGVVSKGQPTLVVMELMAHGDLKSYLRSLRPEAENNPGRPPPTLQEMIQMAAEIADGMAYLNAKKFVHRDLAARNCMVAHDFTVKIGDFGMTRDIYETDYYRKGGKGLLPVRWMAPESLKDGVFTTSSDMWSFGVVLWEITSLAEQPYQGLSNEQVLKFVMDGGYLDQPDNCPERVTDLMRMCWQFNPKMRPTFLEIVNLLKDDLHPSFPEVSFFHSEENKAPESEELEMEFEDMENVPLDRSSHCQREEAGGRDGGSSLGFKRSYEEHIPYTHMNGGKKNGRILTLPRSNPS
STE20-like serine/threonine-protein kinase (Homo sapiens), sequence (Q9H2G2 whole entry, looked up): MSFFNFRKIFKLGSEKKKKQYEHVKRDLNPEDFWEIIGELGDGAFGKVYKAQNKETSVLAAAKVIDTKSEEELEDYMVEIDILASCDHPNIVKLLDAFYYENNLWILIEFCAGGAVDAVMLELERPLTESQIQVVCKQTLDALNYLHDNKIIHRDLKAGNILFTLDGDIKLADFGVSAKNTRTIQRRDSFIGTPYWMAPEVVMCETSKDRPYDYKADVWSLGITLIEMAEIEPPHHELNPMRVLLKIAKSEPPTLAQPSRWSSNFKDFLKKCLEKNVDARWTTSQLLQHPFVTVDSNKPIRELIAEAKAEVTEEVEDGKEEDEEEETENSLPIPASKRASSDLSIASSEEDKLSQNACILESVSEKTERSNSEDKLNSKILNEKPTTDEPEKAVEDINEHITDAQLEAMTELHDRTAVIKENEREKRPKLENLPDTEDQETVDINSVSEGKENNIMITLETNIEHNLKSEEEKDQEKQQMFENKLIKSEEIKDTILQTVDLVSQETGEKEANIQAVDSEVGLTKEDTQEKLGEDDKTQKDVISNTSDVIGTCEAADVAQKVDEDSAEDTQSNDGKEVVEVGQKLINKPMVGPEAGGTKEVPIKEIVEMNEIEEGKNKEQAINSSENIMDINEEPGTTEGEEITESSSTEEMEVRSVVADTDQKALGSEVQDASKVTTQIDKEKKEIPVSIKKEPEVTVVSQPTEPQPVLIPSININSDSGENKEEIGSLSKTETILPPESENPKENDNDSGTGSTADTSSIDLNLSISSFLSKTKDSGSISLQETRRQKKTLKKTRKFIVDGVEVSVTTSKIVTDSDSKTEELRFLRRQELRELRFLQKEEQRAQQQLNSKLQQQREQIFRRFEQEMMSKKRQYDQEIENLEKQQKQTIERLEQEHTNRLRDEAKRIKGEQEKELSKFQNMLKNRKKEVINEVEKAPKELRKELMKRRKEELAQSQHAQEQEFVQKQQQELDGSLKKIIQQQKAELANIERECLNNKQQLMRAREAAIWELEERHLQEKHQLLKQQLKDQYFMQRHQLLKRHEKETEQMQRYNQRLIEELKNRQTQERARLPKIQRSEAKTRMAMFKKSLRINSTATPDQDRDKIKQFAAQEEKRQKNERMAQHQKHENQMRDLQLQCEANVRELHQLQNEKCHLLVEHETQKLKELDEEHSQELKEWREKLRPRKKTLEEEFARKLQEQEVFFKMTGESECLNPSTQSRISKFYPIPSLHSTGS
Dual specificity protein kinase CLK2 (Homo sapiens), sequence (P49760 whole entry, looked up): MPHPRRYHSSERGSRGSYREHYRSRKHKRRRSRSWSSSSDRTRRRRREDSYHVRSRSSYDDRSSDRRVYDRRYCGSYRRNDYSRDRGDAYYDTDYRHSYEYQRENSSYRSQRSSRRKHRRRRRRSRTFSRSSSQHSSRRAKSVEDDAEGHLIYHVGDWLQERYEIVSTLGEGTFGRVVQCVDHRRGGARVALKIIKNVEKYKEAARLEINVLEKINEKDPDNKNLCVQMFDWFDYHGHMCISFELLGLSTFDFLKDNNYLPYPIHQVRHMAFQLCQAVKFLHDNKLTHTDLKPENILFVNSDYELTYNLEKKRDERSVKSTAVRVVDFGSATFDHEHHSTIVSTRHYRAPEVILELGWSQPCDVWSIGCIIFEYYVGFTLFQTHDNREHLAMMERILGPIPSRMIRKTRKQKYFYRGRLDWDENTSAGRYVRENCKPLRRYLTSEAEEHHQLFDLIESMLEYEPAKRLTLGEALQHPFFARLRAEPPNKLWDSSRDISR
Calcium/calmodulin-dependent protein kinase type 1D (Homo sapiens), sequence (Q8IU85 whole entry, looked up): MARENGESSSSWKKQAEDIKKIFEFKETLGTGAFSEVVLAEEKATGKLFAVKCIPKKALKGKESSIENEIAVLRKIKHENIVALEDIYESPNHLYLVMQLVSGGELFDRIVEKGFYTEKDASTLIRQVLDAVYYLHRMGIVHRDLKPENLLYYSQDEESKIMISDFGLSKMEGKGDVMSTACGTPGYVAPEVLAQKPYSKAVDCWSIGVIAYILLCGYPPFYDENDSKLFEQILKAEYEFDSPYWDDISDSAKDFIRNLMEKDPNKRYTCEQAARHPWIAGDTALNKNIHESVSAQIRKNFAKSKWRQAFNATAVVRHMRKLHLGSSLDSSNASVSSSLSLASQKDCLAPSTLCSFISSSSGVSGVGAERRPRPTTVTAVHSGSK
Receptor-type tyrosine-protein kinase FLT3 (Homo sapiens), P36888 [UNDEFINED MUTATION], sequence (P36888 whole entry, looked up, stated change not applied): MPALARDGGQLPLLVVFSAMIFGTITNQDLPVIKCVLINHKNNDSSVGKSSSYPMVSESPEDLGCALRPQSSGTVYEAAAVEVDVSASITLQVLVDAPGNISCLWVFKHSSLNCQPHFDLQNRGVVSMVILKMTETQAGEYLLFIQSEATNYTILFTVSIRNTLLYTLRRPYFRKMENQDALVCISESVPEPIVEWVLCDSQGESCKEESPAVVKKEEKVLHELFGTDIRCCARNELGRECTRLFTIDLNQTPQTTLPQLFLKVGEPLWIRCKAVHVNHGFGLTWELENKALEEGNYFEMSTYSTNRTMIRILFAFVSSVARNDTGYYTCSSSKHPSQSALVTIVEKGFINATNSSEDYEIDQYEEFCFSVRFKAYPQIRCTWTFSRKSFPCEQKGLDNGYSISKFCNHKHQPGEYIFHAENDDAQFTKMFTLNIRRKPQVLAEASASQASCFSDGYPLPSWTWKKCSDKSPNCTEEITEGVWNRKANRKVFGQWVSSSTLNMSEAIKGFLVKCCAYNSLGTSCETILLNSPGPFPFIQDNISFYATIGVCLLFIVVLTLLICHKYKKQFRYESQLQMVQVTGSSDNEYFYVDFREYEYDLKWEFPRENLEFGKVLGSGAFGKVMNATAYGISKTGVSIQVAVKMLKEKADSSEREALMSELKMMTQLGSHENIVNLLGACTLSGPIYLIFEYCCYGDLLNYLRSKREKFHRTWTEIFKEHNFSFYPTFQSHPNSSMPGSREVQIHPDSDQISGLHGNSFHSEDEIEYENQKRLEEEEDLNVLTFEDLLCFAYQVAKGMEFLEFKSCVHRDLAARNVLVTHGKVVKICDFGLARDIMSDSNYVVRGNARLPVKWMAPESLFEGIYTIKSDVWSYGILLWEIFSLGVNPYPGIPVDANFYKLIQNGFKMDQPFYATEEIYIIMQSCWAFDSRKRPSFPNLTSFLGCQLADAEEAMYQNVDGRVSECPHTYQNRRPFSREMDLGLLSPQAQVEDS

Regarding `CNc1cc(Oc2cc(C(=O)Nc3cc(N4CCN(C)CC4)cc(C(F)(F)F)c3)ccc2C)ncn1`, the inhibition in [1] was 3.9%; in [2], 22.6%; in [3], 13%; in test [4] it was -3.3%.
For the compound `CCN1CCN(Cc2ccc(NC(=O)c3ccc(C)c(/C=C/c4cnc5[nH]ccc5c4OC)c3)cc2C(F)(F)F)CC1`, the figures for the residual activity in test [5], in test [7] and in test [9] were 100%, 78% and 1.4%, respectively. In test [6], the inhibition was 6.6%. Moreover, the inhibition at 0.5 µM in test [8] is -32.9%.
Take `CCN1CCN(Cc2ccc(NC(=O)c3ccc(C)c(Oc4ccnc5[nH]ccc45)c3)cc2C(F)(F)F)CC1`: the inhibition entry in the test on RAW was “Dose-Dependent Effect”; in test [10] it was 17.7%; in test [11], 23%; in test [12] it was 1.3%. In addition, the inhibition entry in test [13] and in [14] was “inactive” throughout.

The record behind these values is ChEMBL document CHEMBL5696442, “Discovery of type II inhibitors of TGFβ-activated kinase 1 (TAK1) and mitogen-activated protein kinase kinase kinase kinase 2 (MAP4K2)” (J Med Chem, 2015).
